In ChEMBL document CHEMBL1128364 (J Med Chem, 1995):
Blank lines part the entries; values can stand above or below the compound they belong to. Numbered stars: 1 amine (or outer) side, 2 acyl side, 3 side chain; on linkers, the order of the positions; unused ones are H or OH. Bridge positions count the residues as written; N and C are the ends. Square brackets hold non-standard residues; d marks the D form. Peptide text beside a SMILES is read from it. X2 = O=C(CC1(S[*:2])CCCCC1)[*:1]

Key:
Rattus norvegicus [1] = assay: (§1) In vivo anti-oxytocic activity was determined.; format: functional
[2] = molecular target: Vasopressin V1a receptor (Rattus norvegicus) (UniProt P30560); assay: (§2) Anti-vasopressor activity at V1a receptor
Rattus norvegicus [3] = assay: as §1; format: functional, organism-based; conditions: read-out: pA2 (converted)
Oxytocin receptor [4] = molecular target: T1, Oxytocin receptor (Rattus norvegicus, UniProt P70536); assay: In vitro antioxycic activity with out Mg2+.; conditions: read-out: pA2 (converted)
T1 sequence (P70536 whole entry): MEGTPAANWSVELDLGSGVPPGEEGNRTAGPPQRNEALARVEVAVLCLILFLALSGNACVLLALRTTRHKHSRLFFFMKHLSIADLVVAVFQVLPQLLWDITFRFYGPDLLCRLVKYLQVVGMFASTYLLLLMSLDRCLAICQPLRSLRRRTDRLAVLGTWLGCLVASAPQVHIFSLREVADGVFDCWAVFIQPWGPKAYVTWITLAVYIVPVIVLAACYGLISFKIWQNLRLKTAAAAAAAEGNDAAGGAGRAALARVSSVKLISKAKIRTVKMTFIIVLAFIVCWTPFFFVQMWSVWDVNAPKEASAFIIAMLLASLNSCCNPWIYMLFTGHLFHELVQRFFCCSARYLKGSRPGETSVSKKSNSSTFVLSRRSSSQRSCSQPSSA

Vasopressin V1a receptor = Vasopressin V1a receptor (Rattus norvegicus, UniProt P30560); assay: as §2; conditions: read-out: pA2 (converted)
Vasopressin V2 receptor = Vasopressin V2 receptor (Rattus norvegicus, UniProt Q00788); assay: (§3) Antidiuretic activity at V2 receptor; format: tissue-based, Urine; conditions: read-out: pA2 (converted)
Oxytocin receptor [5] = molecular target: T1, Oxytocin receptor; assay: In vitro anti-oxytocic activity with 0.5 mM Mg2+.; conditions: read-out: pA2 (converted)
[6] = molecular target: Vasopressin V2 receptor (Rattus norvegicus) (UniProt Q00788); assay: Antidiuretic activity at V2 receptor.; conditions: Urine
[7] = molecular target: T2, Oxytocin receptor (Rattus norvegicus) (UniProt P70536); assay: Compound was evaluated for the oxytocic activity with 0.5 mM Mg2+.
T2 sequence (whole entry): T1 sequence (P70536 whole entry)

[8] = molecular target: Vasopressin V2 receptor (Rattus norvegicus) (UniProt Q00788); assay: as §3; format: tissue-based; conditions: Urine
Rattus norvegicus [9] = assay: (§4) In vivo activity for the anti-oxytocic activity.; format: functional
Rattus norvegicus [10] = assay: as §4; format: functional, organism-based; conditions: read-out: pA2 (converted)
Oxytocin receptor [11] = molecular target: T1, Oxytocin receptor; assay: In vitro anti-oxytocic activity with out Mg2+.; conditions: read-out: pA2 (converted)

Sequence of Vasopressin V2 receptor (Rattus norvegicus) (Q00788 whole entry): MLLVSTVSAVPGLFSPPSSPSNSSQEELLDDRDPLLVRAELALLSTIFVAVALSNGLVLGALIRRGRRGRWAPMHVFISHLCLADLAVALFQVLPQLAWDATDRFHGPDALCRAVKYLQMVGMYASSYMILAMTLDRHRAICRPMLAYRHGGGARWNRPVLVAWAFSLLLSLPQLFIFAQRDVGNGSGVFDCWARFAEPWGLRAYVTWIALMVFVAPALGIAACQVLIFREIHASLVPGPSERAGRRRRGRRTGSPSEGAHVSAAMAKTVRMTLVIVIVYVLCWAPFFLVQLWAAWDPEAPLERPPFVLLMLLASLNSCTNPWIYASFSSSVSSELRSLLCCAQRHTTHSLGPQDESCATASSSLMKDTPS
Sequence of Vasopressin V2 receptor (Q00788 whole entry): as above
Sequence of Vasopressin V1a receptor (Rattus norvegicus) (P30560 whole entry, looked up): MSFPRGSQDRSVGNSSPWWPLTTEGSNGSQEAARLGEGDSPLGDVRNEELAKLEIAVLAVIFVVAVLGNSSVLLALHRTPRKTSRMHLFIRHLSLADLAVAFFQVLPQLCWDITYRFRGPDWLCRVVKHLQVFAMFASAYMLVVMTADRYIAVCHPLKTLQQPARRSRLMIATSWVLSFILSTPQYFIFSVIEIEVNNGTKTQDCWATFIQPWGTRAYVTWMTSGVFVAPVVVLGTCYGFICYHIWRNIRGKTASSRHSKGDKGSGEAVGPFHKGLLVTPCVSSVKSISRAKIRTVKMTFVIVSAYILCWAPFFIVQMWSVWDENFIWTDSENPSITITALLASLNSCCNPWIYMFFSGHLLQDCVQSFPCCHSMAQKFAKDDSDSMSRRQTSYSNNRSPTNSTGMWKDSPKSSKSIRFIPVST
Sequence of Vasopressin V1a receptor (P30560 whole entry): as the sequence (P30560 whole entry, looked up) above

Structure (SMILES): CC[C@H](C)[C@@H]1NC(=O)[C@H](Cc2ccc(OC)cc2)NC(=O)CC2(CCCCC2)SSC[C@H](C(=O)N2CCC[C@H]2C(=O)N[C@@H](CCCN)C(=O)O)NC(=O)[C@H](CC(N)=O)NC(=O)[C@H]([C@@H](C)O)NC1=O
ED (Rattus norvegicus [1]): 9.24 nM/kg

Structure (SMILES): CC[C@H](C)[C@@H]1NC(=O)[C@@H](Cc2cc3ccccc3[nH]2)NC(=O)CC2(CCCCC2)SSC[C@@H](C(=O)N2CCC[C@H]2C(=O)N[C@@H](CCCN=C(N)N)C(=O)NCC(N)=O)NC(=O)[C@H](CC(N)=O)NC(=O)[C@H](CCC(N)=O)NC1=O
ED [2]: 2 nM/kg

Structure (SMILES): CC[C@H](C)[C@@H]1NC(=O)[C@H](Cc2ccc(OC)cc2)NC(=O)CC2(CCCCC2)SSC[C@H](C(=O)N2CCC[C@H]2C(=O)N[C@@H](CCCN)C(=O)NCC(N)=O)NC(=O)[C@H](CC(N)=O)NC(=O)[C@H](CCC(N)=O)NC1=O
ED (Rattus norvegicus [1]): 3.11 nM/kg

Kb (Oxytocin receptor [4]): 11 nM
Kb (Vasopressin V1a receptor): 148 nM
Kb (Vasopressin V2 receptor): 3.16 µM
Kb (Oxytocin receptor [5]): 38.9 nM
Structure (SMILES): CC[C@H](C)[C@@H]1NC(=O)[C@H](Cc2ccc(OC)cc2)NC(=O)CC2(CCCCC2)SSC[C@H](C(=O)N2CCC[C@H]2C(=O)N[C@@H](CCCN)C(=O)N[C@@H](Cc2ccc(O)cc2)C(N)=O)NC(=O)[C@H](CC(N)=O)NC(=O)[C@H]([C@@H](C)O)NC1=O
Kb (Rattus norvegicus [3]): 83.2 nM

Structure (SMILES): CC[C@H](C)[C@@H]1NC(=O)[C@@H](Cc2c[nH]c3ccccc23)NC(=O)CC2(CCCCC2)SSC[C@@H](C(=O)N2CCC[C@H]2C(=O)N[C@@H](CCCN)C(=O)NCC(N)=O)NC(=O)[C@H](CC(N)=O)NC(=O)[C@H]([C@@H](C)O)NC1=O
ED (Rattus norvegicus [1]): 3.08 nM/kg

Structure (SMILES): N=C(N)NCCC[C@H](NC(=O)[C@@H]1CCCN1C(=O)[C@@H]1CSSC[C@H](N)C(=O)N[C@@H](Cc2ccc(O)cc2)C(=O)N[C@@H](Cc2ccccc2)C(=O)N[C@@H](CCC(N)=O)C(=O)N[C@@H](CC(N)=O)C(=O)N1)C(=O)NCC(N)=O
Antidiuretic activity [6]: 323 U mg-1
Oxytocic activity [7]: 25.5 U mg-1

Structure (SMILES): NC(=O)CC[C@@H]1NC(=O)[C@H](Cc2ccccc2)NC(=O)[C@H](Cc2ccc(O)cc2)NC(=O)[C@H](N)CSSC[C@H](C(=O)N2CCC[C@H]2C(=O)N[C@@H](CCCN=C(N)N)C(=O)NCC(N)=O)NC(=O)[C@H](CC(N)=O)NC1=O
Antidiuretic activity [6]: 0.82 U mg-1

Structure (SMILES): CC(C)[C@@H]1NC(=O)[C@H](Cc2ccccc2)NC(=O)[C@@H](Cc2ccccc2)NC(=O)CC2(CCCCC2)SSC[C@H](C(=O)N2CCC[C@H]2C(=O)N[C@@H](CCCN=C(N)N)C(=O)NCC(N)=O)NC(=O)[C@H](CC(N)=O)NC1=O
ED [2]: 1.9 nM/kg
ED [8]: 3.9 nM/kg
Kb (Vasopressin V1a receptor): 27.5 nM
Kb (Vasopressin V2 receptor): 0.0562 µM

Structure (SMILES): CCOc1ccc(C[C@@H]2NC(=O)CC3(CCCCC3)SSC[C@@H](C(=O)N3CCC[C@H]3C(=O)N[C@@H](CCCN=C(N)N)C(=O)NCC(N)=O)NC(=O)[C@H](CC(N)=O)NC(=O)[C@H](C(C)C)NC(=O)[C@H](Cc3ccccc3)NC2=O)cc1
ED [2]: 0.14 nM/kg
ED [8]: 1.9 nM/kg
Kb (Vasopressin V1a receptor): 6.92 nM
ED (Rattus norvegicus [9]): 13 nM/kg
Kb (Rattus norvegicus [10]): 182 nM

Structure (SMILES): CC[C@H](C)[C@@H]1NC(=O)[C@H](Cc2ccc(O)cc2)N(C)C(=O)CC2(CCCCC2)SSC[C@H](C(=O)N2CCC[C@H]2C(=O)N[C@@H](CCCN)C(=O)NCC(N)=O)NC(=O)[C@H](CC(N)=O)NC(=O)[C@H](CCC(N)=O)NC1=O
ED [2]: 3.73 nM/kg

Structure (SMILES): CC[C@H](C)[C@@H]1NC(=O)[C@@H](Cc2c[nH]c3ccccc23)NC(=O)CC2(CCCCC2)SSC[C@H](C(=O)N2CCC[C@H]2C(=O)N[C@@H](CCCN=C(N)N)C(=O)NCC(N)=O)NC(=O)[C@H](CC(N)=O)NC(=O)[C@H](CCC(N)=O)NC1=O ([dW]IQN[dC]PRG-NH2; linker N-5 via X2)
Kb (Vasopressin V1a receptor): 29.5 nM
Kb (Vasopressin V2 receptor): > 2.51 µM

ED [2]: 23 nM/kg
Kb (Vasopressin V1a receptor): 331 nM
Kb (Oxytocin receptor [11]): 12.9 nM
Kb (Vasopressin V2 receptor): 3.16 µM
Kb (Oxytocin receptor [5]): 5.75 nM
Structure (SMILES): CC[C@H](C)[C@@H]1NC(=O)[C@H](Cc2ccc(OC)cc2)NC(=O)CC2(CCCCC2)SSC[C@@H](C(=O)N2CCC[C@H]2C(=O)N[C@@H](CCCN)C(=O)O)NC(=O)[C@H](CC(N)=O)NC(=O)[C@H]([C@@H](C)O)NC1=O

Structure (SMILES): CC(C)[C@@H]1NC(=O)[C@@H](Cc2ccccc2)NC(=O)[C@@H](Cc2ccccc2)NC(=O)CC2(CCCCC2)SSC[C@@H](C(=O)N2CCC[C@H]2C(=O)N[C@@H](CCCN=C(N)N)C(=O)NCC(N)=O)NC(=O)[C@@H](CC(N)=O)NC1=O
ED [2]: 0.58 nM/kg
ED [8]: 0.67 nM/kg

Structure (SMILES): CCOc1ccc(C[C@H]2NC(=O)CC3(CCCCC3)SSC[C@H](C(=O)N3CCC[C@H]3C(=O)N[C@@H](CCCN=C(N)N)C(=O)NCC(N)=O)NC(=O)[C@H](CC(N)=O)NC(=O)[C@H](C(C)C)NC(=O)[C@H](Cc3ccccc3)NC2=O)cc1
ED (Rattus norvegicus [9]): 4.8 nM/kg
